In ChEMBL document CHEMBL5113390, “Design, synthesis and antitumor evaluation of novel 1H-indole-2-carboxylic acid derivatives targeting 14-3-3η protein” (Eur J Med Chem, 2022):
pIC50, pKd: −log10 of the molar value. Active and inactive are the calls of the source. No cut-off for these calls is given here.

Experiments:
[1] = tested on: Hep 3B2; test: Induction of apoptosis in human Hep3B cells assessed as viable cells at 10 uM measured after 48 hrs by Annexin V/FITC-PI staining based flow cytometry assay (reference value: 90.09%); assay type: functional; conditions: read-out: Activity
[2] = tested on: Hep 3B2; test: Induction of apoptosis in human Hep3B cells assessed as viable cells at 2.5 uM measured after 48 hrs by Annexin V/FITC-PI staining based flow cytometry assay (reference value: 90.09%); assay type: functional; conditions: read-out: Activity
[3] = tested on: Hep 3B2; test: Induction of cell cycle arrest in human Hep3B cells assessed as accumulation at S phase at 1 uM incubated for 48 hrs by flow cytometry analysis (reference value: 30.56 %); assay type: functional
[4] = Metabolic stability in human liver microsomes assessed as half life; assay type: ADME, Microsome
[5] = tested on: Hep 3B2; test: Induction of apoptosis in human Hep3B cells assessed as upregulation of cleaved caspase-3 expression at 5 to 20 uM measured after 48 hrs by Western blot analysis; assay type: functional, cell-based; conditions: dose 5-20 µM
[6] = tested on: Hep 3B2; test: Induction of cell cycle arrest in human Hep3B cells assessed as accumulation at S phase at 2.5 uM incubated for 48 hrs by flow cytometry analysis (reference value: 30.56 %); assay type: functional
[7] = tested on: SMMC-7721; test: Antiproliferative activity against human SMMC-7721 cells assessed as reduction in cell viability incubated for 72 hrs by MTT assay; assay type: functional, cell-based; conditions: SMMC-7721, 72 h
[8] = tested on: Hep 3B2; test: Induction of cell cycle arrest in human Hep3B cells assessed as accumulation at G2/M phase at 10 uM incubated for 48 hrs by flow cytometry analysis (reference value: 8.59 %); assay type: functional
[9] = tested on: Hep 3B2; test: Induction of apoptosis in human Hep3B cells assessed as necrotic cells at 1 uM measured after 48 hrs by Annexin V/FITC-PI staining based flow cytometry assay (reference value: 0.12%); assay type: functional
[10] = tested on: Bel-7402; test: Antiproliferative activity against human Bel-7402 cells assessed as reduction in cell viability incubated for 72 hrs by MTT assay; assay type: functional, cell-based; conditions: Bel-7402, 72 h
[11] = molecular target: T1, 14-3-3 protein eta (Homo sapiens) (UniProt Q04917); test: Inhibition of 14-3-3 eta in human Hep3B cells assessed as reduction in AKT phosphorylation at T308 residue measured after 24 hrs by western blot analysis; assay type: cell-based; conditions: dose 0.5-5 µM, DDE = dose-dependent effect
T1 sequence (whole entry): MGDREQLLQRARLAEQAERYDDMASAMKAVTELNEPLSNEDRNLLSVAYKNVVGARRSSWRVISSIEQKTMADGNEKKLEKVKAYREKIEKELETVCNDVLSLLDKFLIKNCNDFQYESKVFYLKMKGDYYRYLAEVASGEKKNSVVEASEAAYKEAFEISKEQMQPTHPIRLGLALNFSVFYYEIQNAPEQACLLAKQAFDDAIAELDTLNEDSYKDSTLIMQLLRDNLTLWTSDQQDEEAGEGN

[12] = molecular target: T1, 14-3-3 protein eta (Homo sapiens); test: Inhibition of 14-3-3 eta in human Hep3B cells assessed as reduction in AKT phosphorylation at S473 residue measured after 24 hrs by western blot analysis; assay type: cell-based; conditions: dose 0.5-5 µM, DDE = dose-dependent effect
[13] = Metabolic stability in human liver microsomes assessed as intrinsic clearance; assay type: ADME, Microsome; conditions: read-out: CLH
[14] = tested on: Hep 3B2; test: Induction of apoptosis in human Hep3B cells assessed as early apoptotic cells at 2.5 uM measured after 48 hrs by Annexin V/FITC-PI staining based flow cytometry assay (reference value: 6.65%); assay type: functional
[15] = tested on: Hep 3B2; test: Induction of apoptosis in human Hep3B cells assessed as early apoptotic cells at 1 uM measured after 48 hrs by Annexin V/FITC-PI staining based flow cytometry assay (reference value: 6.65%); assay type: functional
[16] = molecular target: T2, 14-3-3 protein eta (Homo sapiens, UniProt Q04917); test: Binding affinity to 14-3-3 eta (unknown origin) assessed as dissociation constant by biolayer interferometry assay
T2 sequence (Q04917 whole entry): T1 sequence (whole entry)

[17] = tested on: Hep 3B2; test: Induction of apoptosis in human Hep3B cells assessed as necrotic cells at 2.5 uM measured after 48 hrs by Annexin V/FITC-PI staining based flow cytometry assay (reference value: 0.12%); assay type: functional
[18] = tested on: Hep 3B2; test: Induction of apoptosis in human Hep3B cells assessed as late apoptotic cells at 10 uM measured after 48 hrs by Annexin V/FITC-PI staining based flow cytometry assay (reference value: 3.14%); assay type: functional
[19] = tested on: SNU-387; test: Antiproliferative activity against human SNU-387 cells assessed as reduction in cell viability incubated for 72 hrs by MTT assay; assay type: functional, cell-based; conditions: SNU-387, 72 h
[20] = tested on: Hep 3B2; test: Induction of apoptosis in human Hep3B cells assessed as necrotic cells at 5 uM measured after 48 hrs by Annexin V/FITC-PI staining based flow cytometry assay (reference value: 0.12%); assay type: functional
[21] = tested on: Hep 3B2; test: Induction of apoptosis in human Hep3B cells assessed as viable cells at 5 uM measured after 48 hrs by Annexin V/FITC-PI staining based flow cytometry assay (reference value: 90.09%); assay type: functional; conditions: read-out: Activity
[22] = tested on: Hep 3B2; test: Induction of cell cycle arrest in human Hep3B cells assessed as accumulation at S phase at 5 uM incubated for 48 hrs by flow cytometry analysis (reference value: 30.56 %); assay type: functional
[23] = Metabolic stability in rat liver microsomes assessed as half life; assay type: ADME, Microsome
[24] = tested on: Hep 3B2; test: Induction of cell cycle arrest in human Hep3B cells assessed as accumulation at G0/G1 phase at 5 uM incubated for 48 hrs by flow cytometry analysis (reference value: 60.85 %); assay type: functional
[25] = tested on: Hep 3B2; test: Induction of apoptosis in human Hep3B cells assessed as viable cells at 1 uM measured after 48 hrs by Annexin V/FITC-PI staining based flow cytometry assay (reference value: 90.09%); assay type: functional; conditions: read-out: Activity
[26] = tested on: Hep 3B2; test: Induction of cell cycle arrest in human Hep3B cells assessed as accumulation at G0/G1 phase at 2.5 uM incubated for 48 hrs by flow cytometry analysis (reference value: 60.85 %); assay type: functional
[27] = tested on: hERG; test: Selectivity ratio of IC50 for inhibition of hERG by automated patch clamp analysis to IC50 for antiproliferative activity against human SMMC-7721 cells assessed as reduction in cell viability incubated for 72 hrs by MTT assay; assay type: toxicity, cell-based; conditions: read-out: Ratio IC50
[28] = tested on: Hep 3B2; test: Induction of apoptosis in human Hep3B cells assessed as upregulation of cleaved caspase-8 expression measured after 48 hrs by Western blot analysis; assay type: functional, cell-based; conditions: dose 5-20 µM, DDE = dose-dependent effect
[29] = tested on: Hep 3B2; test: Antiproliferative activity against human Hep3B cells assessed as reduction in cell viability measured after 7 days by crystal violet staining based assay; assay type: functional; conditions: dose 1-10 µM, time 7.0 day, DDE = dose-dependent effect
[30] = tested on: Hep 3B2; test: Induction of apoptosis in human Hep3B cells assessed as late apoptotic cells at 2.5 uM measured after 48 hrs by Annexin V/FITC-PI staining based flow cytometry assay (reference value: 3.14%); assay type: functional
[31] = tested on: Hep 3B2; test: Downregulation of AKT expression in human Hep3B cells measured after 24 hrs by western blot analysis; assay type: functional, cell-based; conditions: dose 0.5-5 µM, DDE = dose-dependent effect
[32] = tested on: Hep 3B2; test: Inhibition of cell invasion in human Hep3B cells incubated for 72 hrs by crystal violet staining based transwell assay; assay type: functional; conditions: dose 1-10 µM, DDE = dose-dependent effect
[33] = tested on: Hep 3B2; test: Induction of apoptosis in human Hep3B cells assessed as late apoptotic cells at 1 uM measured after 48 hrs by Annexin V/FITC-PI staining based flow cytometry assay (reference value: 3.14%); assay type: functional

Q: For `COc1cccc(CNCc2c(C(=O)O)n(Cc3ccc(C)cc3)c3cc(C(C)C)ccc23)c1`, which viability at 10 µM [1] is on record?
A: 61.9%

Q: What about the viability at 2.5 µM [2] of the same compound?
A: 86%

Q: And the Activity [3]?
A: 35.59%

Q: What about the half-life [4] of the same compound?
A: 7.31 min

Q: And the Activity [5]?
A: Active

Q: What about the Activity [6] of the same compound?
A: 36.4%

Q: And the pIC50 [7]?
A: 5.53

Q: And the Activity [8]?
A: 2.59%

Q: And the Activity [9]?
A: 0.38%

Q: And the pIC50 [10]?
A: 5.23

Q: What about the inhibition [11] of the same compound?
A: Dde

Q: What about the inhibition [12] of the same compound?
A: Dde

Q: What about the CLint scaled [13] of the same compound?
A: 238 mL/min/kg

Q: And the Activity [14]?
A: 8.74%

Q: What about the Activity [15] of the same compound?
A: 6.8%

Q: And the pKd [16]?
A: 4.46

Q: What about the Activity [17] of the same compound?
A: 0.27%

Q: What about the Activity [18] of the same compound?
A: 13.52%

Q: What about the pIC50 [19] of the same compound?
A: 5.26

Q: What about the Activity [20] of the same compound?
A: 1.07%

Q: What about the viability at 5 µM [21] of the same compound?
A: 79.9%

Q: And the Activity [22]?
A: 37.73%

Q: What about the half-life [23] of the same compound?
A: 9.25 min

Q: What about the Activity [24] of the same compound?
A: 58.48%

Q: And the viability at 1 µM [25]?
A: 88%

Q: What about the Activity [26] of the same compound?
A: 59.12%

Q: And the selectivity ratio at 72 h [27]?
A: 11.8

Q: And the Activity [28]?
A: Dde

Q: And the Activity [29]?
A: Dde

Q: What about the Activity [30] of the same compound?
A: 5.02%

Q: And the inhibition [31]?
A: Dde

Q: What about the inhibition [32] of the same compound?
A: Dde

Q: And the Activity [33]?
A: 4.86%
